One compound from patent US20210002262A1, “CYANOPYRROLIDINES AS USP30 INHIBITORS AND FIBROSIS TREATMENT” (MISSION THERAPEUTICS LIMITED, priority 2018, published 2021) can be followed below.

Entries after “also recorded” stand apart in the source; their conditions may differ.

Series [1] concerns the target T1, USP30 (Homo sapiens, UniProt Q70CQ3).
T1 sequence (Q70CQ3 1-517): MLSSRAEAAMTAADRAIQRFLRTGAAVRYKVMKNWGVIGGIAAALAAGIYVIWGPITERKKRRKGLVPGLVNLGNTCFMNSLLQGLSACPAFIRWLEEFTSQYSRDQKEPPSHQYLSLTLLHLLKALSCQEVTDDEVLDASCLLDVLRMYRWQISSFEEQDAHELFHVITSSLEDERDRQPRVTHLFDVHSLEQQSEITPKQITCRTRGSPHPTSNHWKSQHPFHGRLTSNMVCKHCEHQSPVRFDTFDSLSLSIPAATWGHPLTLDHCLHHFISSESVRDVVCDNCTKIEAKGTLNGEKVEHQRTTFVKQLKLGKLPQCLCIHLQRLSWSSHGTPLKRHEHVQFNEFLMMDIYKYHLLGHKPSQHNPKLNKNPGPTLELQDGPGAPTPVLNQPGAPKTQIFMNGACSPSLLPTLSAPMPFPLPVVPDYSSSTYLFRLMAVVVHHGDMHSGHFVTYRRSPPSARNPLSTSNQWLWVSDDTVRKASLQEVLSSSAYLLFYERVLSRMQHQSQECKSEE
Description: USP30 biochemical IC50 assay. Particulars: Examples of WO 2017/103614. The procedure:
Dilution plates were prepared at 21 times the final concentration (2100 μM for a final concentration of 100 μM) in 50% DMSO in a 96-well polypropylene V-bottom plate (Greiner #651201). A typical 8-point dilution series would be 100, 30, 10, 3, 1, 0.3, 0.1, 0.03 μM final. Reactions were performed in duplicate in black 384 well plates (small volume, Greiner 784076) in a final reaction volume of 21 μl. Either 1 μl of 50% DMSO or diluted compound was added to the plate. USP30 was diluted in reaction buffer (40 mM Tris, pH 7.5, 0.005% Tween 20, 0.5 mg/ml BSA, 5 mM beta-mercaptoethanol) to the equivalent of 0.05 μl/well and 10 μl of diluted USP30 was added to the compound. Enzyme and compound were incubated for 30 min at room temp. Reactions were initiated by the addition of 50 nM of TAMRA labelled peptide linked to ubiquitin via an iso-peptide bond as fluorescence polarisation substrate. Reactions were read immediately after addition of substrate and following a 2-hour incubation at room temperature. Readings were performed on a Pherastar Plus (BMG Labtech). λ Excitation 540 nm; λ Emission 590 nm.

The test system of series [2] is diet-induced NAFLD/NASH. Description: Diet-induced model of NAFLD/NASH. In kind it is in vivo, mice. Conditions: 8 weeks. The procedure:
Mice were fed Amylin-diet (D09100301, Research Diets, US; 40% fat (18% trans-fat), 40% carbohydrate (20% fructose) and 2% cholesterol) for 37 weeks. Liver biopies were harvested and mice were randomization into treatment groups based on liver Colla1 quantification. Three weeks following biopsy surgery, study animals were dosed orally (P.O.) with either; Vehicle (0.5% HPMC/0.5% PVP/0.1% SDS nanosuspension), MT#1 @ 15 mg/kg QD or MT#1 @ […] QD […] or with Elafibranor @ 30 mg/kg QD (positive control) for eight (8) weeks. A control group of age- and sex-matched mice fed lean chow diet ad libitum were also administered vehicle (P.O) over the same 8 (eight) week period. Following the full dosing schedule, mice were sacrificed, whole livers resected and weighed, fixed in paraformaldehyde before being paraffin embedded. H&E stained slides were then prepared and the average % fractional area of lipid vacuoles (steatosis) determined for each section (@ 20×objective) using Visiomorph software (Visophram, Denmark). The average % fractional area was multiplied by the total liver weight to determine the total liver lipid content per animal. Values expressed as mean of n=9-12+SEM. Dunnett's test one-factor linear model. **: P<0.01, ***: P<0.001 compared to DIO-NASH Vehicle.
Summary of fibrosis stage scores of pre- and post-study liver biopsies harvested from the diet-induced NAFLD/NASH study. Fibrosis stage scores are determined by assessment of picosirius red stained liver sections for relative appearance and location of collagen staining, where; 0=No staining, 1=Perisinusoidal or periportal, 2=Perisinusoidal and periportal and […]=Bridging collagen staining observed. For each group of animals with higher (worsening), same or lower (improvement) in score at post-compared to pre-study is indicated by the height of the bar. One-sided Fisher's exact test with Bonferroni correction. No differences at significance level 0.05.

The test system of series [3] is Unilateral ureteral obstruction (UUO) kidney fibrosis. Description: Unilateral ureteral obstructive kidney disease model (UUO). The series is classed as in vivo. Particulars: for In life mortality / collagen (picrosirius red staining): UUO. The text has this:
In this study, adult C57B16 female mice at 7 to 8 weeks of age with average weight of around 18 to 20 g were used. To complete the ureteral obstruction, the abdominal cavity was exposed via a midline incision and the left ureter was ligated at two points with 4-0 silk and dissected. Successful unilateral ureteral obstruction was later confirmed by observation of dilation of the renal pelvis due to hydronephrosis.
At harvest, mice were anesthetised and both kidneys were harvested; the contralateral kidney serves as control for the UUO kidney. The kidneys were dissected along median line into two parts, of which one side was fixed in formaldehyde, for paraffin embedding and the other was snap frozen for protein or RNA isolation.
Formalin fixed tissue were embedded in paraffin blocks and cut into 5 μm sections. All damaged kidneys, 5 contralateral kidneys from each group and 3 sham kidneys were analysed (in total n=80 kidney samples). Picrosirius Red and α-SMA stain was performed to evaluate fibrotic changes and myofibroblast activation. Analysis was performed by a pathology trained technical staff member, without knowledge of the animal group assignment. High magnification images were taken of each slide an analysed for the surface area covered by the stain.

Series [4] has as its system Bleomycin-induced lung fibrosis. Put plainly: Bleomycin-induced lung fibrosis model. Particulars: for In life mortality: oral, days 7 to 21, bleomycin 1.5 U/kg.
Description: Treatment group animals (n=10/group) received 1.5 U/kg of clinical bleomycin via oropharyngeal route on day 0 under inhalant anaesthesia. Animals were monitored for tolerance of the bleomycin administration procedure and subsequently bodyweights of all mice were recorded at least 3 times per week during the study. […] All treatments were administered orally.
At day 21, lungs were harvested from each animal and weighed, followed by fixation in 10% neutral buffered formalin (NBF) for histopathological analysis. The lung samples were processed and embedded with all lobes from each mouse in one paraffin block. Coronal sections through the four major lobes were stained with Masson's Trichrome. For each animal, consecutive lung fields were examined at 200×magnification in a raster pattern using a 20×objective lens and a 10×ocular lens. […] The Fibrotic Index was calculated as the sum of the modified Ashcroft field scores divided by the number of fields examined.

As usually defined, the IC50 is the concentration that gives 50% inhibition. In series [1], `N#Cc1cccc(-c2nnc(C(=O)NC[C@H]3CCN(C#N)C3)o2)c1` [Example 68, (R)-5-(3-cyanophenyl)-N-((1-cyanopyrrolidin-3-yl)methyl)-1,3,4-oxadiazole-2-carboxamide] yielded a half-inhibitory concentration (IC50) of under 10 nM. Further, in series [2] (NASH animals, MT#1 15 mg/kg BID (P.O.), compared to DIO-NASH Vehicle), the “total liver lipid content, reduction” value is on record as “statistically significant”. For the same compound, the “total liver lipid content” value in series [2] (NASH animals, P.O., dose dependence) is reported as “dose-dependent reduction”. The liver steatosis result in series [2] (diet-induced NAFLD/NASH, P.O., Elafibranor 30 mg/kg QD) was “statistically significant reduction”. The “fibrotic stage scores (picosirius red stained liver sections, post- compared to pre-study biopsy)” value in series [2] (diet-induced NAFLD/NASH, P.O., Elafibranor 30 mg/kg QD, listed as MT#1) is “Neither MT#1 or Elafibranor (positive control) significantly improved; also recorded: did not significantly improve”. Also, the In life mortality in series [3] (5 mg/kg MT#1 nanosuspension BID PO, days 0 to 10) is listed as 10%; in series [3] (15 mg/kg MT#1 nanosuspension BID PO, days 0 to 10) it was 0%; in series [3] (50 mg/kg MT#1 nanosuspension BID PO, days 0 to 10) it was 10%; in series [4] (5 mg/kg MT#1 nanosuspension BID), 10%; in series [4] (15 mg/kg MT#1 nanosuspension BID), 10%; in series [4] (50 mg/kg MT#1 nanosuspension BID), 0%. Besides, the “collagen (picrosirius red staining)” value in series [3] (15 mg/kg BID MT#1) and in series [3] (50 mg/kg BID MT#1) was “Statistically significant decreases” throughout. Besides, the “collagen deposition as measured by picrosirius red staining” value in series [3] (UUO, 5, 15, 50 mg/kg BID PO, days 0 to 10) was “dose dependent decrease”. Moreover, the “fibrosis as assessed by the modified Ashcroft score, effect compared to vehicle” value in series [4] (50 mg/kg BID oral, one-way ANOVA + Tukey) was “statistically significant effect compared to vehicle”. In addition, the “fibrosis as assessed by the modified Ashcroft score (collagen deposition, septae thickening)” value in series [4] (dose ranging 5, 15, 50 mg/kg BID oral, days 7 to 21, harvest day 21) is on record as “dose dependent reduction”.
